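Following 48 hours of exposure in 96-well plates, responses at five concentrations were used to interpolate endpoints linearly. At the GI50, growth is halved.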 The source made the active and inactive calls. Cut-off read from the data, not from the text of the source: active = GI50 up to about 1.1 µM and inactive = higher. Where a SMILES comes first, the peptide text is derived from it. The star is where a group is joined. Boc = CC(C)(C)OC(=O)*; OSu = O=C1CCC(=O)N1O*
Key:
Assay in all cases: NCI anticancer screen, dose series, 48 h
[1] = system: SW-620
[2] = system: HCC 2998
[3] = system: U-251
[4] = system: PC-3
[5] = system: ACHN
[6] = system: COLO 205
[7] = system: LOX IMVI
[8] = system: SF-539
[9] = system: NCI-H460
[10] = system: HT-29
[11] = system: UO-31
[12] = system: A549
[13] = system: Malme-3M
[14] = system: SK-MEL-5
[15] = system: SR
[16] = system: RXF 393
[17] = system: MDA-MB-231
[18] = system: OVCAR-3
[19] = system: CCRF-CEM
[20] = system: MCF7

Row | Structure (SMILES) | GI50 [1] | GI50 [2] | GI50 [3] | GI50 [4] | GI50 [5] | GI50 [6] | GI50 [7] | GI50 [8] | GI50 [9] | GI50 [10] | GI50 [11] | GI50 [12] | GI50 [13] | GI50 [14] | GI50 [15] | GI50 [16] | GI50 [17] | GI50 [18] | GI50 [19] | GI50 [20]
1 | C=C(Cl)C(C)(Cl)CCC(Cl)C(C)C (stereo not drawn) | 99.5 µM (inactive) | > 100 µM (inactive) | > 100 µM (inactive) | > 100 µM (inactive) | > 100 µM (inactive) | > 100 µM (inactive) | 15.3 µM (inactive) | > 100 µM (inactive) | > 100 µM (inactive) | 66.8 µM (inactive) | > 100 µM (inactive) | > 100 µM (inactive) | > 100 µM (inactive) | > 100 µM (inactive) | 24.8 µM (inactive) | > 100 µM (inactive) | > 100 µM (inactive) | > 100 µM (inactive) | 38.7 µM (inactive) | > 100 µM (inactive)
2 | CC(C)(C(=O)N(C(=O)N1CCN(c2ccccc2)CC1)S(=O)(=O)c1ccccc1)c1ccc(Cl)cc1 | 7.03 µM (inactive) | 27.7 µM (inactive) | 6.32 µM (inactive) | 12.6 µM (inactive) | 19.5 µM (inactive) | 20.7 µM (inactive) | 46.8 µM (inactive) | 61.8 µM (inactive) | 28.8 µM (inactive) | 21.4 µM (inactive) | 15.3 µM (inactive) | 33.7 µM (inactive) | 90.4 µM (inactive) | 35.7 µM (inactive) | 22.8 µM (inactive) | > 100 µM (inactive) | 31.7 µM (inactive) | 18.7 µM (inactive) | 3.94 µM (inactive) | 4.33 µM (inactive)
3 | CCC(=O)c1ccc2[nH]c3c(C)c4c(O)cc(C)nc4c(C)c3c2c1 | > 100 µM (inactive) | > 100 µM (inactive) | 42.6 µM (inactive) | > 100 µM (inactive) | > 100 µM (inactive) | > 100 µM (inactive) | > 100 µM (inactive) | > 100 µM (inactive) | > 100 µM (inactive) | > 100 µM (inactive) | > 100 µM (inactive) | > 100 µM (inactive) | > 100 µM (inactive) | > 100 µM (inactive) | 40.6 µM (inactive) | > 100 µM (inactive) | 40.8 µM (inactive) |  | > 100 µM (inactive) | > 100 µM (inactive)
4 | CN(c1ccccc1)S(=O)(=O)c1ccccc1[N+](=O)[O-] | > 100 µM (inactive) | > 100 µM (inactive) | > 100 µM (inactive) | 57.9 µM (inactive) | > 100 µM (inactive) | > 100 µM (inactive) | > 100 µM (inactive) | > 100 µM (inactive) | 77.1 µM (inactive) | 39.8 µM (inactive) | > 100 µM (inactive) | > 100 µM (inactive) | > 100 µM (inactive) | > 10 µM (inactive) | 81.3 µM (inactive) | > 100 µM (inactive) | 67.9 µM (inactive) | > 100 µM (inactive) | 44.3 µM (inactive) | > 100 µM (inactive)
5 | COc1ccc2c(c1)-c1c(c3cc(OC)ccc3n1CCCN(C)C)CC2 | 11.1 µM (inactive) | 3.13 µM (inactive) | 8.67 µM (inactive) | 10.3 µM (inactive) | 14.3 µM (inactive) | 2.02 µM (inactive) | 4.06 µM (inactive) |  | 10.1 µM (inactive) | 2.81 µM (inactive) | 10.8 µM (inactive) | 12.1 µM (inactive) | 2.28 µM (inactive) | 2.68 µM (inactive) | 5.18 µM (inactive) | 6.93 µM (inactive) | 13 µM (inactive) | 14.1 µM (inactive) | 4.46 µM (inactive) | 7.83 µM (inactive)
6 | CCCCCCCCCCCCCCCCCc1cccc(OCOCCOC)c1CO | > 100 µM (inactive) | > 100 µM (inactive) | > 100 µM (inactive) | > 100 µM (inactive) | > 100 µM (inactive) | > 100 µM (inactive) |  | > 100 µM (inactive) | > 100 µM (inactive) | > 100 µM (inactive) | > 100 µM (inactive) | > 100 µM (inactive) | > 100 µM (inactive) | > 100 µM (inactive) | > 100 µM (inactive) | > 100 µM (inactive) | > 100 µM (inactive) | > 100 µM (inactive) | > 100 µM (inactive) | > 100 µM (inactive)
7 | COc1c2c(cc3c1OCO3)C13C=CC(OC)CC1N(CC3)C2.[O-][Cl+3]([O-])([O-])O (stereo not drawn) | > 100 µM (inactive) | 90.8 µM (inactive) | > 100 µM (inactive) | > 100 µM (inactive) | > 100 µM (inactive) | 35.6 µM (inactive) | > 100 µM (inactive) | > 100 µM (inactive) |  | 71 µM (inactive) | > 100 µM (inactive) | > 100 µM (inactive) | > 100 µM (inactive) | 29 µM (inactive) | 4.9 µM (inactive) | > 100 µM (inactive) | > 100 µM (inactive) | > 100 µM (inactive) | > 100 µM (inactive) | > 100 µM (inactive)
8 | CN(C)/C=C(\C(=O)c1ccccc1)n1nc(-c2ccccc2)cc1-c1ccccc1 | > 10 µM (inactive) | > 10 µM (inactive) | > 10 µM (inactive) | > 10 µM (inactive) | > 10 µM (inactive) | > 10 µM (inactive) | > 10 µM (inactive) | > 10 µM (inactive) | > 10 µM (inactive) | > 10 µM (inactive) |  | > 10 µM (inactive) | > 10 µM (inactive) | > 10 µM (inactive) | > 10 µM (inactive) | > 10 µM (inactive) | > 10 µM (inactive) | > 10 µM (inactive) | > 10 µM (inactive) | > 10 µM (inactive)
9 | COc1ncc(C#CC(=O)c2ccccc2OC)c(OC)n1 | 0.78 µM (active) | 6.35 µM (inactive) | 3.89 µM (inactive) | 1.86 µM (inactive) | 1.69 µM (inactive) | 2 µM (inactive) | 0.281 µM (active) |  | 6.34 µM (inactive) | 1.57 µM (inactive) | 1.55 µM (inactive) | 5.98 µM (inactive) | 1.61 µM (inactive) | 2.06 µM (inactive) | 0.202 µM (active) | 1.71 µM (inactive) | 0.92 µM (active) | 3.15 µM (inactive) | 0.0995 µM (active) | 0.736 µM (active)
10 | COc1c2c(cc3oc(C)cc(=O)c13)OC(=N)C(C(N)=O)C2CC(=O)c1ccc(N)cc1 (stereo not drawn) | > 100 µM (inactive) | > 100 µM (inactive) | > 100 µM (inactive) | > 100 µM (inactive) | > 100 µM (inactive) | > 100 µM (inactive) | > 100 µM (inactive) | > 100 µM (inactive) | > 100 µM (inactive) |  | > 100 µM (inactive) | > 100 µM (inactive) | > 100 µM (inactive) | > 100 µM (inactive) | > 100 µM (inactive) | > 100 µM (inactive) | > 100 µM (inactive) | > 100 µM (inactive) | > 100 µM (inactive) | > 100 µM (inactive)
11 | COC(=O)c1c(OC(C)=O)ccc2c1c1c(OC(C)=O)c3ccccc3c(OC(C)=O)c1n2Cc1cc(OC)cc(OC)c1 |  | 2.56 µM (inactive) | 5.5 µM (inactive) | 4.66 µM (inactive) | 30.8 µM (inactive) | 26.1 µM (inactive) |  | 3.09 µM (inactive) | 3.53 µM (inactive) | 47.9 µM (inactive) | 6.76 µM (inactive) | 6 µM (inactive) | 12 µM (inactive) | 4.06 µM (inactive) | 4.44 µM (inactive) | 8.81 µM (inactive) | 16.3 µM (inactive) | 4.51 µM (inactive) | 6.76 µM (inactive) | 26.1 µM (inactive)
12 | C[Si](C)(c1ccccc1)[C@H]1CCCC=C1CCNC1c2ccccc2CCc2ccccc21 | > 100 µM (inactive) | > 100 µM (inactive) | > 100 µM (inactive) | > 100 µM (inactive) | 67.5 µM (inactive) | 38.9 µM (inactive) | 70.6 µM (inactive) | > 100 µM (inactive) | 61.7 µM (inactive) | 28.7 µM (inactive) | 49.5 µM (inactive) | 61.8 µM (inactive) | 80 µM (inactive) | 33.6 µM (inactive) | 36.6 µM (inactive) | 80 µM (inactive) | 89.7 µM (inactive) | > 100 µM (inactive) | 1.07 µM (active) | 53 µM (inactive)
13 | COCC(=O)OC1CCn2c1nc1c2C(=O)C(C)=C(NC(C)=O)C1=O (stereo not drawn) | 7.4 µM (inactive) | 13 µM (inactive) | 6.05 µM (inactive) | 2.27 µM (inactive) | 8.91 µM (inactive) | 15.5 µM (inactive) | 4.34 µM (inactive) | 3.94 µM (inactive) | 17.5 µM (inactive) | 9.93 µM (inactive) | 12.6 µM (inactive) | 21.6 µM (inactive) | 2.77 µM (inactive) | 13.5 µM (inactive) | 1.94 µM (inactive) | 3.41 µM (inactive) | 1.24 µM (inactive) | 1.66 µM (inactive) | 0.857 µM (active) | 1.84 µM (inactive)
14 | CC(C)(C)OC(=O)NC(Cc1ccc(O)cc1)C(=O)NC(CCCCN)C(=O)NC(Cc1ccc(O)cc1)C(=O)NC(CCCCN)C(=O)ON1C(=O)CCC1=O (stereo not drawn) (Boc-YKYK-OSu; configuration not given here) | > 100 µM (inactive) | > 100 µM (inactive) | > 100 µM (inactive) | > 100 µM (inactive) | > 100 µM (inactive) | > 100 µM (inactive) |  |  | > 100 µM (inactive) | 89.3 µM (inactive) | > 100 µM (inactive) | > 100 µM (inactive) | > 100 µM (inactive) | > 100 µM (inactive) | > 100 µM (inactive) | > 100 µM (inactive) | > 100 µM (inactive) |  | > 100 µM (inactive) | > 100 µM (inactive)

From ChEMBL document CHEMBL1201862, “PubChem BioAssay data set” (2004)
